“Also recorded” adds a separate entry of the source.
Columns and labels:
Assay type in all cases: cell-based, human
[1] = test system: conjugation of NEDD8 to target proteins; assay: Western blotting for conjugation of NEDD8 to target proteins in cortical neurons; settings: 1 μM; postmitotic cortical neurons; 3 hours or 7 days of treatment
Text: (§1) Western blotting. Samples for western blotting were harvested, pelleted and snap frozen. Cell pellets were resuspended in RIPA buffer supplemented with Halt protease and phosphatase inhibitors (ThermoFisher) followed by centrifugation to clarify the sample. Protein concentration was quantified using the Precision Red Advanced Protein Assay according to manufacturer's instructions and equal amounts of protein were mixed with NuPAGE LDS Sample Buffer and NuPAGE Sample Reducing Agent and heated to 72 degrees for 10 mins. A total of 5-20 μg of protein was separated on NuPAGE Novex 4-12% Bis Tris gels and transferred by wet blotting onto PVDF membranes. Membranes were blocked in 5% milk protein or 5% BSA when probing for the phospho-Tau. Primary antibodies used for this study were: β-ACTIN (Sigma, A2228-100UL), BAG1 (Santa Cruz, sc-33704), BAG3 (Abcam, ab47124), Cas9 (Cell Signaling Technologies; 14697S), GAPDH-HRP (Santa Cruz Biotech, sc-47724 HRP), LMNB1 (Abcam, ab16048), NAE1(Cell Signaling Technologies, 14321S), NEDD8 (Abcam, ab81264), p21 (Cell Signaling Technologies, 2947), TAU (Dako, A0024), p-TAU(S202/T205) (Thermo Fisher; MN1020), UBA3 (Abcam, ab124728). Band intensity was visualized using BioRad ChemiDoc XRS+molecular imager. After imaging the membrane was re-probed with either GAPDH or β-ACTIN antibodies for normalization. Band intensity was quantified using Fiji.

[2] = test system: neurons with the PSEN^M146V/M146V mutation; assay: Viability of neurons with the PSEN^M146V/M146V mutation; settings: PSEN^M146V/M146V neurons (FIG. 25B)
[3] = test system: H9-Nurr1^GFP neurons having the LRRK2 G2019S mutation; assay: Viability of neurons with the LRRK2 G2019S mutation; settings: LRRK2 G2019S neurons (FIG. 26C)
[4] = test system: APP^swe/swe cortical neurons; assay: pATM immunofluorescence (DNA damage); settings: 1 μM for 7 days
Method: Immunocytochemistry. Cells were fixed in 4% paraformaldehyde for 10 mins then permeabilized in PBS+0.3% Triton. Cells were blocked in 5% donkey or goat serum for 1 h. Primary antibody incubation was performed overnight. Primary antibodies used in this study were: p-ATM (S1981) (Thermo Fisher; MA1-2020), Cas9 (Cell Signaling Technologies; 14697S), COL1A1 (R&D; AF6220), FOXG1 (Takara; M227), Ki67 (Dako; M7240), MAP2 (Thermo Fisher; PA1-16751), NANOG (Cell Signaling Technologies; 4903S), PAX6 (Biolegend; 901301), TAU (Thermo Fisher; MN1000), p-TAU (S235) (Thermo Fisher; PA5-104785). For all image quantifications images were taken from 3 individual wells and averaged. This was repeated three times with neurons from independent differentiations. Volocity was used to count MAP2+ and Ki67+ cells with pyknotic. DAPI^bright nuclei excluded from the cell count. FIJI was used for TAU and pATM quantifications.

[5] = test system: wild-type or APP^swe/swe neurons; assay: Flow cytometry for aging hallmarks (proteostasis, heterochromatin, senescence)
Method: Flow Cytometry. Neuronal cultures were dissociated to single cell suspensions using Accutase (Innovative Cell Technologies) supplemented with Neuron Isolation Enzyme for Pierce™ (Thermo 88285) solution at 1:50. Single cell suspensions were stained with Zombie UV™ Fixable Viability Kit (Biolegend 423107) at 1:2500 in PBS for 15 minutes at room temperature, followed by fixation in 4% Paraformaldehyde for 10 minutes (4° C.). Cells stained with CellEvent Senescence Green (Thermo C10840) were done so at 1:250 in assay buffer for 2 hours at 37° C. For intracellular probes, cells were permeabilized in 0.5% triton-x for 10 minutes (4° C.), and blocked in 5% BSA for 10 minutes (4° C.). Cells were stained with H3k9me3-PE antibody (Cell Signaling Technologies #13969S) diluted 1:200, and Proteostat (Enzo Life Sciences ENZ-51023-KP050) diluted 1:2500, in 5% BSA in PBS for 30 minutes at 4° C. Cells were analyzed on the Cytek Aurora Flow Cytometer. Experiments were repeated with cells from 3 independent differentiations.

APP^swe/swe neurons [6] = assay: Senescence associated β-gal, brightfield images; settings: 1 μM for 10 days
APP^swe/swe neurons [7] = assay: Western blotting for p21, LMNB1, BAG1 and BAG3; settings: 1 μM from DIV50-DIV60
Text: as §1

APP^swe/swe neurons [8] = assay: Western blotting for pTau(S202/T205) and total Tau, APP^swe/swe neurons
Text: as §1

wild-type neurons = assay: Western blotting for pTau(S202/T205) and total Tau, wild-type neurons; settings: wild-type neurons (FIG. 23C)
Text: as §1

AD neurons = assay: Nuclear roundness and nuclear area of AD neurons

NS(=O)(=O)OC[C@@H]1C[C@@H](n2ccc3c(N[C@H]4CCc5ccccc54)ncnc32)C[C@@H]1O [MLN4924, [(1S,2S,4R)-4-[4-[[(1S)-2,3-Dihydro-1H-inden-1-yl]amino]-7H-pyrrolo[2,3-d]pyrimidin-7-yl]-2-hydroxycyclopentyl]methyl sulfamic acid ester]
conjugation of NEDD8 to target proteins [1]: effectively block the conjugation of NEDD8 to target proteins; also recorded: blocks conjugation of NEDD8 to target proteins | viability [2]: reduced viability | viability [3]: reduced viability | pATM induction (DNA damage) [4]: pATM induction | cellular hallmarks of age ([5]; 1 μM for 7 or 10 days, AD-PSC (APP^swe/swe) cortical neurons (FIGS. 3A-3E)): induces cellular hallmarks of age | cellular age (protein aggregation, senescence, histone methylation) ([5]; wild-type or APP^swe/swe neurons, versus DMSO (FIG. 27)): induces cellular age in both wild-type and disease backgrounds | β-gal positive neurons (senescence) (APP^swe/swe neurons [6]): induction of showing β-gal positive | cellular senescence (p21, LAMNB1 Western blotting) (APP^swe/swe neurons [7]): increased cellular senescence | proteostasis (BAG1, BAG3 Western blotting) (APP^swe/swe neurons [7]): loss of proteostasis | changes in phosphorylated Tau (APP^swe/swe neurons [8]; 1 μM from DIV50-DIV60, App^swe/swe versus wild-type neurons (FIGS. 4C-4F)): AD-specific changes in phosphorylated Tau | high molecular weight form of pTAU(AT8) (APP^swe/swe neurons [8]; AD neurons (FIG. 23A-23B)): increase in the high molecular weight form | major form of pTAU(AT8) (APP^swe/swe neurons [8]; AD neurons (FIG. 23A-23B)): decrease in major form of pTAU(AT8) | change in pTAU(AT8) forms (wild-type neurons): did not show the change | nuclear roundness (nuclear lamina defects) (AD neurons; AD neurons (FIG. 28A)): decreased nuclear roundness | nuclear area (cellular senescence) (AD neurons; AD neurons (FIG. 28B)): increased nuclear area

Source: US20250085272A1, “METHODS AND SYSTEMS FOR MODULATING AND MODELING AGING AND NEURODEGENERATION DISEASES” (MEMORIAL SLOAN-KETTERING CANCER CENTER, priority 2022, published 2025)
